Results from patent US7521395B2, “Synergistically acting herbicidal mixtures” (BASF Aktiengesellschaft, priority 2002, dated 2009).

What was measured:
Test in all cases: Herbicidal action, post-emergence treatment, field trial
Format in all cases: in vivo
Conditions in all cases: application rate 1250 g/ha ai, scale 0 = no damage, 100 = complete destruction
[1] = system: Tagetes minuta
Excerpt: (§1) The mixtures according to the invention were applied pre- or post-emergence (foliar treatment). The herbicidal compounds of component B and of component C were applied in the formulation in which they are present as commercially available product.
(§2) The herbicidally active compounds of components A), B) and C) were applied in succession or jointly, in the latter case in some cases as a tank mix and in some cases as a readymix, in the form of emulsions, aqueous solutions or suspensions, the vehicle being water (300-400 l/ha). In the case of the field trials, application was effected with the aid of a mobile plot sprayer.
(§3) The test period extended over 3 to 8 weeks, and the stands were also observed at later points in time.
(§4) Damage by the herbicidal compositions was evaluated with reference to a scale of 0% to 100% in comparison with untreated control plots. 0 means no damage and 100 means complete destruction of the plants.
(§5) In these examples, the value E at which only an additive effect of the individual active ingredients is to be expected was calculated by the method of S. R. Colby (Calculating synergistic and antagonistic responses of herbicide combinations, Weeds 15, 20 pp (1967)).
(§6) This was done using the formula
(§7) [formula] where • X=Percentage of the herbicidal action of component X) at an application rate of x; • Y=Percentage of the herbicidal action of component Y) at an application rate of y; • E=expected herbicidal action of component X)+Y) at rates of application x+y (in %).
(§8) If the value observed exceeds the value E calculated in accordance with Colby's formula, then synergism is present.

[2] = system: Anoda cristata
Excerpt: as §1, §2, §3, §4, §5, §6, §7, §8

[3] = system: Sorghum halepense
Excerpt: as §1, §2, §3, §4, §5, §6, §7, §8

CCNc1nc(Cl)nc(NC(C)C)n1 [atrazine]
Tagetes minuta Damage [%] [1]: 50%
Anoda cristata Damage [%] [2]: 70%
Sorghum halepense Damage [%] [3]: 10%
